Results taken from BindingDB's records for doi:10.1124/jpet.104.074146 (Meiji Seika Kaisha, 2005).

Key:
Glucocorticoid receptor = biological target: T1, Glucocorticoid receptor (Homo sapiens, UniProt P04150)
T1 sequence (P04150 whole entry): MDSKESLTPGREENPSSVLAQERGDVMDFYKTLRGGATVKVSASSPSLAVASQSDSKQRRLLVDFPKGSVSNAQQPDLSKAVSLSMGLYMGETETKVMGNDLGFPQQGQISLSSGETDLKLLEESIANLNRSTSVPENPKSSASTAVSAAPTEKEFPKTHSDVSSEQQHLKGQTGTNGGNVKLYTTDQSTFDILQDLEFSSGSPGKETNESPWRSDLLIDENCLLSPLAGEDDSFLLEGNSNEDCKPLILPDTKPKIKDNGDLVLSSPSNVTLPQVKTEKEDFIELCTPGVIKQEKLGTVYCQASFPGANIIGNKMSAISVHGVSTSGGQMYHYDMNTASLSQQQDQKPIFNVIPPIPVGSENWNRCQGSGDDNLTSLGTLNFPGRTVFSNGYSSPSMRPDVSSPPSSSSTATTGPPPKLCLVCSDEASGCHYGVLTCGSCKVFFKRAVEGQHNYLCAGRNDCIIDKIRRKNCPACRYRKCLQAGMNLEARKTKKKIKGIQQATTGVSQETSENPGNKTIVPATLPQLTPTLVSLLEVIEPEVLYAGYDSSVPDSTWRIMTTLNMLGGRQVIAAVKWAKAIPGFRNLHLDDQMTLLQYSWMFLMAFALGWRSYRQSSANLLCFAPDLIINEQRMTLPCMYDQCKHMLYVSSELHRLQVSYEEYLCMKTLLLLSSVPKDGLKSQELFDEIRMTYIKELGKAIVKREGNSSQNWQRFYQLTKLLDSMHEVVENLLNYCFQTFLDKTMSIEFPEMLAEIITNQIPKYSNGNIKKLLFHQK

Progesterone receptor = biological target: T2, Progesterone receptor (Homo sapiens, UniProt P06401)
T2 sequence (P06401 whole entry): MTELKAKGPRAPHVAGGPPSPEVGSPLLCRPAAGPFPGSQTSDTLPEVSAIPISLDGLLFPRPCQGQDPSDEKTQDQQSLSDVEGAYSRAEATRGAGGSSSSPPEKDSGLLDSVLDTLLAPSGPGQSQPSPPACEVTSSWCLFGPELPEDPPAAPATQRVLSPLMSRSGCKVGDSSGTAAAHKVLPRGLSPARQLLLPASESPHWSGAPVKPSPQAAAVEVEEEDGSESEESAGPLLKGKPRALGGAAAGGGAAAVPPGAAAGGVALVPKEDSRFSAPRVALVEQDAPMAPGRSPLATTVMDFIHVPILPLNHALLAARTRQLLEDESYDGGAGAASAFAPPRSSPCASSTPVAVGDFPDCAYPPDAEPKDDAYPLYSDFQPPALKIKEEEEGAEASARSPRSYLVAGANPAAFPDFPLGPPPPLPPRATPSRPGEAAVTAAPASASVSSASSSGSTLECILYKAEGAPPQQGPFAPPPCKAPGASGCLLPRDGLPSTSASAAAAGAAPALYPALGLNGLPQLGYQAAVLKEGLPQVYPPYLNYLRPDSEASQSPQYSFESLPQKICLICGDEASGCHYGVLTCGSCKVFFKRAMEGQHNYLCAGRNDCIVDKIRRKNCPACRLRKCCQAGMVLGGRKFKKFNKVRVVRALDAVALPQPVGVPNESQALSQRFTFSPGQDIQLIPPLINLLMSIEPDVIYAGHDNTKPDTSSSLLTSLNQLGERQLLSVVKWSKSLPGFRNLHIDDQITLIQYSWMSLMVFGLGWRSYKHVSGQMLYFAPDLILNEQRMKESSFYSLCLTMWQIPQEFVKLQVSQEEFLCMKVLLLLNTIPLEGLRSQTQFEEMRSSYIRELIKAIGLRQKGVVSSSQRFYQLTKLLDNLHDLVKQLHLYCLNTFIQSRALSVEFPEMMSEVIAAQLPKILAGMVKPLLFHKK

Estrogen receptor = biological target: T3, Estrogen receptor (Homo sapiens, UniProt P03372)
T3 sequence (P03372 whole entry): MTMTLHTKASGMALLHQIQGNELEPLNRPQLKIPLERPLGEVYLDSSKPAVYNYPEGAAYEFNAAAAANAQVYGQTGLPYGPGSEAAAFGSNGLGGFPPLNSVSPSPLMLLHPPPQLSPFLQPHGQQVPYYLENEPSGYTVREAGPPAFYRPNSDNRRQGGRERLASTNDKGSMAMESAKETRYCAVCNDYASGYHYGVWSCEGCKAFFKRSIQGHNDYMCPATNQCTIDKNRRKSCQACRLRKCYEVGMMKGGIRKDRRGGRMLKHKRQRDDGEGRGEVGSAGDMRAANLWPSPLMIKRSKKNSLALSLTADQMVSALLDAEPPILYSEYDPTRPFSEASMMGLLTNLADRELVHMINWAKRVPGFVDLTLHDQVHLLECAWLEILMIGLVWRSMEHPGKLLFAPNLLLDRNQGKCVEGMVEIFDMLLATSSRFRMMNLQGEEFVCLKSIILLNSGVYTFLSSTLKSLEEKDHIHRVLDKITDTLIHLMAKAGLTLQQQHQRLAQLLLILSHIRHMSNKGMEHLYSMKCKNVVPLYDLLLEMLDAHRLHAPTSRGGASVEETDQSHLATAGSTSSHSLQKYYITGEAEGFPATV

Androgen receptor = biological target: T4, Androgen receptor (Rattus norvegicus, UniProt P15207)
T4 sequence (P15207 whole entry): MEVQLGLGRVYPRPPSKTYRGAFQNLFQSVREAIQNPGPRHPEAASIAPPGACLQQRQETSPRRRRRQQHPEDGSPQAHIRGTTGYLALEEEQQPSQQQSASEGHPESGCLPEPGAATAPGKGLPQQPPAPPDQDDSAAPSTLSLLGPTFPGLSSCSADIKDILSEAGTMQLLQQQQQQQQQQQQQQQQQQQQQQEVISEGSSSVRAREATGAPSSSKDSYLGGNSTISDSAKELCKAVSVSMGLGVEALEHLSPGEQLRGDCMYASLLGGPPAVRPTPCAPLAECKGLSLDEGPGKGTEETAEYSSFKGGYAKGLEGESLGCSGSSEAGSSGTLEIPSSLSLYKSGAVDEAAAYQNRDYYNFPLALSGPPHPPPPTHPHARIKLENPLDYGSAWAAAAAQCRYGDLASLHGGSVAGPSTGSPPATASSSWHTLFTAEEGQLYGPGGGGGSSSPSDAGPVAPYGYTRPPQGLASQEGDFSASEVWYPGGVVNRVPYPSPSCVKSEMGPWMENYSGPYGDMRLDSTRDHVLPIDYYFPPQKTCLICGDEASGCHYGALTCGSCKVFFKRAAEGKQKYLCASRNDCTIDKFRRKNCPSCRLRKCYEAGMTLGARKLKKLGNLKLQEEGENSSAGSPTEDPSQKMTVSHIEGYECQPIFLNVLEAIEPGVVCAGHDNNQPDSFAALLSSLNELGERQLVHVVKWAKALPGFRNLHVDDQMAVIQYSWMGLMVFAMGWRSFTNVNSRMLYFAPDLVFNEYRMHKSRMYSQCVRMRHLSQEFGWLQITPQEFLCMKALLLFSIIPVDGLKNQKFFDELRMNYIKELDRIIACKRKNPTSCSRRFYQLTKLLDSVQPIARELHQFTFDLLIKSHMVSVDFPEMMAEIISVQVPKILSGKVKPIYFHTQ

Compound | Ki (Glucocorticoid receptor) [nM] | IC50 (Progesterone receptor) [nM] | IC50 (Estrogen receptor) [nM] | IC50 (Androgen receptor) [nM]
COC1C=C2C=C3C(=C(C)C(=O)N3C)[C@@H](C)[C@]2(C)CC1OC(=O)N(C)C (stereo partly drawn) [CP8816] | > 5000 | 25 | > 10000 | –
CNC(=O)OC1C[C@]2(C)C(=CC1O)C=C1C(=C(C)C(=O)N1C)[C@H]2C (stereo partly drawn) [CP8863] | > 10000 | 40 | > 10000 | 9700
CC(=O)OC1(C(C)=O)CCC2C3CC(C)C4=CC(=O)CCC4(C)C3CCC21C (stereo not drawn) [NSC_4042] | 43 | – | – | –
